Data: PMC7377239, “Cardiovascular Effects of Polychlorinated Biphenyls and Their Major Metabolites” (Environmental Health Perspectives, 2020)
Where two headings read alike, the source gives them in different places.

Test system: iCell cardiomyocytes (human iPSC-derived cardiomyocytes)
Experiment: Intracellular Ca2+ flux / beating parameters in iCell cardiomyocytes (FLIPR tetra), 90 min or 24 h
Assay type: cell-based
Conditions: Homo sapiens, Cardiomyocyte, 0.00 µM = 100.00; for activity at 0.1 µM: 0.10 µM
Summary of the method: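 Gelatin-plated iCell cardiomyocytes (5,000/well) were dye-loaded for 2 h at 37 °C, then exposed for 90 min or 24 h to PCBs/metabolites (5× plates at 0.05–500 µM; 0.5% DMSO final) in triplicate. Ca2+ flux was read for 100 s at 8 Hz and 37 °C. Peak height, frequency, spacing CV and decay/rise ratio were vehicle-normalized and fitted with a four-parameter logistic model, with POD set at 1 SD of vehicle.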

[1] = 1.5 h, read-out: cm.amp.avg.90min
[2] = 1.5 h, read-out: cm.amp.cv.90min
[3] = 1.5 h, read-out: cm.decay.rise.90min
[4] = 1.5 h, read-out: cm.spacing.cv.90min
[5] = 24 h, read-out: cm.amp.avg.24hrs
[6] = 24 h, read-out: cm.amp.cv.24hrs
[7] = 24 h, read-out: cm.decay.rise.24hrs
[8] = 24 h, read-out: cm.spacing.cv.24hrs

Oc1ccc(-c2cccc(Cl)c2)cc1Cl [4-OH PCB11]
activity at 0.01 µM [1]: 107%
activity at 0.01 µM [2]: 101%
activity at 0.01 µM (1.5 h, read-out: cm.bpm.90min): 107%
activity at 0.01 µM [3]: 99.5%
activity at 0.01 µM [4]: 111%
activity at 0.1 µM [1]: 96%
activity at 0.1 µM [2]: 97.9%
activity at 0.1 µM (1.5 h, read-out: cm.bpm.90min): 102%
activity at 0.1 µM [3]: 94.9%
activity at 0.1 µM [4]: 90.9%
activity at 1 µM [1]: 103%
activity at 1 µM [2]: 91.8%
activity at 1 µM (1.5 h, read-out: cm.bpm.90min): 99.1%
activity at 1 µM [3]: 96.5%
activity at 1 µM [4]: 95.9%
activity at 10 µM [1]: 89.2%
activity at 10 µM [2]: 99%
activity at 10 µM (1.5 h, read-out: cm.bpm.90min): 104%
activity at 10 µM [3]: 94.9%
activity at 10 µM [4]: 104%
activity at 100 µM [1]: 0%
activity at 100 µM [2]: 0%
activity at 100 µM (1.5 h, read-out: cm.bpm.90min): 0%
activity at 100 µM [3]: 0%
activity at 100 µM [4]: 0%
activity at 0.01 µM [5]: 93.8%
activity at 0.01 µM [6]: 28.6%
activity at 0.01 µM (24 h, read-out: cm.bpm.24hrs): 46.8%
activity at 0.01 µM [7]: 48.9%
activity at 0.01 µM [8]: 46.2%
activity at 0.1 µM [5]: 110%
activity at 0.1 µM [6]: 104%
activity at 0.1 µM (24 h, read-out: cm.bpm.24hrs): 92.6%
activity at 0.1 µM [7]: 109%
activity at 0.1 µM [8]: 104%
activity at 1 µM [5]: 92.2%
activity at 1 µM [6]: 98.4%
activity at 1 µM (24 h, read-out: cm.bpm.24hrs): 89.7%
activity at 1 µM [7]: 99.3%
activity at 1 µM [8]: 89.5%
activity at 10 µM [5]: 135%
activity at 10 µM [6]: 67.1%
activity at 10 µM (24 h, read-out: cm.bpm.24hrs): 93.6%
activity at 10 µM [7]: 106%
activity at 10 µM [8]: 91.5%
activity at 100 µM [5]: 0%
activity at 100 µM [6]: 0%
activity at 100 µM (24 h, read-out: cm.bpm.24hrs): 0%
activity at 100 µM [7]: 0%
activity at 100 µM [8]: 0%
